System: yeast genes (level of expressed mRNA)
Assay: DNA chip analysis of expressed mRNA of yeast genes after 2 h culture with a toxic chemical substance
Format: cell-based, Saccharomyces cerevisiae S288C
Settings: for The level of expressed mRNA in the presence of chemical substance/ (ratio to absence): transport facilitation protein gene; for The level of expressed mRNA in the presence of chemical substance/: ratio to no chemical; for The level of expressed mRNA in the presence of chemical substance/ (ratio to absence of chemical substance): stress protein genes, DNA chip
Outline: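 S. cerevisiae S288C in YPD at 25 °C was exposed at log phase for 2 h to a growth-inhibiting, non-lethal concentration of the chemical. Poly(A) mRNA was reverse-transcribed with Cy3- or Cy5-dUTP and hybridized to a whole-genome yeast DNA chip (65 °C, >12 h). Values are fluorescence ratios versus untreated cells.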

sodium dodecylbenzosulfonate [(17)]
The level of expressed mRNA in the presence of chemical substance/in the absence of chemical substance (yeast gene YDR313C): 1.1
The level of expressed mRNA in the presence of chemical substance/The level of expressed mRNA in the absence of chemical substance (yeast gene YDR315C): 1.2
The level of expressed mRNA in the presence of chemical substance/ (ratio to absence) (yeast gene YDR342C): 1.0
The level of expressed mRNA in the presence of chemical substance/ (ratio to absence) (yeast gene YDR343C): 1.1
The level of expressed mRNA in the presence of chemical substance/ (yeast gene YDR350C): 1.4
The level of expressed mRNA in the presence of chemical substance/The level of expressed mRNA in the absence of chemical substance (yeast gene YDR358W): 1.9
The level of expressed mRNA in the presence of chemical substance/in the absence of chemical substance (yeast gene YDR368W): 1.1
The level of expressed mRNA in the presence of chemical substance/ (yeast gene YDR374C): 1.0
The level of expressed mRNA in the presence of chemical substance/ (ratio to absence), gene YDR377W (yeast gene YDR377W, mitochondria-located protein genes, 2 h culture with chemical): 1.2
The level of expressed mRNA in the presence of chemical substance/ (in its absence), gene YDR387C (yeast gene YDR387C, ratio of DNA chip fluorescence intensity to that without chemical substance): 1.2
The level of expressed mRNA in the presence of chemical substance/The level of expressed mRNA in the absence of chemical substance (yeast gene YDR388W): 1.2
The level of expressed mRNA in the presence of chemical substance/The level of expressed mRNA in the absence of chemical substance (yeast gene YDR432W): 0.7
The level of expressed mRNA in the presence of chemical substance/The level of expressed mRNA in the absence of chemical substance (yeast gene YDR481C): 1.2
The level of expressed mRNA in the presence of chemical substance/ (yeast gene YDR494W): 1.1
The level of expressed mRNA in the presence of chemical substance/in the absence of chemical substance (yeast gene YDR497C): 1.6
The level of expressed mRNA in the presence of chemical substance/ (ratio to absence) (yeast gene YDR497C): 1.6
The level of expressed mRNA in the presence of chemical substance/The level of expressed mRNA in the absence of chemical substance (yeast gene YDR510W): 1.1
The level of expressed mRNA in the presence of chemical substance/ (yeast gene YDR512C): 1.3
The level of expressed mRNA in the presence of chemical substance/in the absence of chemical substance (yeast gene YDR516C): 1.1
The level of expressed mRNA in the presence of chemical substance/ (yeast gene YDR531W): 1.5
The level of expressed mRNA in the presence of chemical substance/ (ratio to absence) (yeast gene YEL027W): 1.0
The level of expressed mRNA in the presence of chemical substance/ (ratio to absence of chemical substance) (yeast gene YEL039C): 0.7
The level of expressed mRNA in the presence of chemical substance/ (yeast gene YEL041W): 1.5
The level of expressed mRNA in the presence of chemical substance/The level of expressed mRNA in the absence of chemical substance (yeast gene YEL042W): 0.7
The level of expressed mRNA in the presence of chemical substance/ (ratio to absence) (yeast gene YEL065W): 0.7
The level of expressed mRNA in the presence of chemical substance/The level of expressed mRNA in the absence of chemical substance (yeast gene YEL066W): 1.0
The level of expressed mRNA in the presence of chemical substance/ (yeast gene YEL072W): 0.8
The level of expressed mRNA in the presence of chemical substance/ (in its absence), gene YER015W (yeast gene YER015W, ratio of DNA chip fluorescence intensity to that without chemical substance): 1.6
The level of expressed mRNA in the presence of chemical substance/The level of expressed mRNA in the absence of chemical substance (yeast gene YER039C): 1.7
The level of expressed mRNA in the presence of chemical substance/ (yeast gene YER045C): 1.1
The level of expressed mRNA in the presence of chemical substance/in the absence of chemical substance (yeast gene YER053C): 1.2
The level of expressed mRNA in the presence of chemical substance/ (ratio to absence) (yeast gene YER053C): 1.2
The level of expressed mRNA in the presence of chemical substance/ (ratio to absence of chemical substance) (yeast gene YER057C): 1.1
The level of expressed mRNA in the presence of chemical substance/in the absence of chemical substance (yeast gene YER091C): 1.2
The level of expressed mRNA in the presence of chemical substance/in the absence of chemical substance (yeast gene YER096W): 1.0
The level of expressed mRNA in the presence of chemical substance/The level of expressed mRNA in the absence of chemical substance (yeast gene YER107C): 1.1
The level of expressed mRNA in the presence of chemical substance/ (ratio to absence) (yeast gene YER119C): 1.0
The level of expressed mRNA in the presence of chemical substance/ (yeast gene YER124C): 0.9
The level of expressed mRNA in the presence of chemical substance/The level of expressed mRNA in the absence of chemical substance (yeast gene YER130C): 3.0
The level of expressed mRNA in the presence of chemical substance/in the absence of chemical substance (yeast gene YER178W): 1.1
The level of expressed mRNA in the presence of chemical substance/ (yeast gene YER181C): 0.7
The level of expressed mRNA in the presence of chemical substance/in the absence of chemical substance (yeast gene YFL014W): 1.5
The level of expressed mRNA in the presence of chemical substance/The level of expressed mRNA in the absence of chemical substance (yeast gene YFL028C): 1.2
The level of expressed mRNA in the presence of chemical substance/in the absence of chemical substance (yeast gene YFL030W): 1.0
The level of expressed mRNA in the presence of chemical substance/in the absence of chemical substance (yeast gene YFL031W): 1.2
The level of expressed mRNA in the presence of chemical substance/ (ratio to absence) (yeast gene YFL041W): 1.1
The level of expressed mRNA in the presence of chemical substance/The level of expressed mRNA in the absence of chemical substance (yeast gene YFL043C): 1.5
The level of expressed mRNA in the presence of chemical substance/ (ratio to absence) (yeast gene YFL054C): 1.7
The level of expressed mRNA in the presence of chemical substance/ (ratio to absence) (yeast gene YFL055W): 1.4
The level of expressed mRNA in the presence of chemical substance/in the absence of chemical substance (yeast gene YFL056C): 1.0
The level of expressed mRNA in the presence of chemical substance/in the absence of chemical substance (yeast gene YFL057C): 1.6
The level of expressed mRNA in the presence of chemical substance/in the absence of chemical substance (yeast gene YFL061W): 1.2
The level of expressed mRNA in the presence of chemical substance/ (yeast gene YFR017C): 0.9
The level of expressed mRNA in the presence of chemical substance/ (yeast gene YFR042W): 1.7
The level of expressed mRNA in the presence of chemical substance/ (ratio to absence) (yeast gene YFR045W): 0.9
The level of expressed mRNA in the presence of chemical substance/ (yeast gene YFR046C): 1.2
The level of expressed mRNA in the presence of chemical substance/in the absence of chemical substance (yeast gene YFR047C): 1.5
The level of expressed mRNA in the presence of chemical substance/in the absence of chemical substance (yeast gene YFR053C): 1.4
The level of expressed mRNA in the presence of chemical substance/ (ratio to absence) (yeast gene YGL008C): 1.1
The level of expressed mRNA in the presence of chemical substance/ (in its absence), gene YGL035C (yeast gene YGL035C, ratio of DNA chip fluorescence intensity to that without chemical substance): 0.9
The level of expressed mRNA in the presence of chemical substance/ (yeast gene YGL046W): 1.5
The level of expressed mRNA in the presence of chemical substance/in the absence of chemical substance (yeast gene YGL062W): 1.1
The level of expressed mRNA in the presence of chemical substance/ (yeast gene YGL067W): 0.9
The level of expressed mRNA in the presence of chemical substance/ (yeast gene YGL098W): 1.1
The level of expressed mRNA in the presence of chemical substance/ (ratio to absence) (yeast gene YGL104C): 1.3
The level of expressed mRNA in the presence of chemical substance/ (yeast gene YGL114W): 0.9
The level of expressed mRNA in the presence of chemical substance/ (in its absence), gene YGL115W (yeast gene YGL115W, ratio of DNA chip fluorescence intensity to that without chemical substance): 0.8
The level of expressed mRNA in the presence of chemical substance/ (ratio to absence of chemical substance) (yeast gene YGL115W): 0.8
The level of expressed mRNA in the presence of chemical substance/ (yeast gene YGL117W): 2.1
The level of expressed mRNA in the presence of chemical substance/ (yeast gene YGL146C): 1.0
The level of expressed mRNA in the presence of chemical substance/in the absence of chemical substance (yeast gene YGL156W): 1.4
The level of expressed mRNA in the presence of chemical substance/in the absence of chemical substance (yeast gene YGL157W): 1.8
The level of expressed mRNA in the presence of chemical substance/The level of expressed mRNA in the absence of chemical substance (yeast gene YGL158W): 0.8
The level of expressed mRNA in the presence of chemical substance/ (ratio to absence) (yeast gene YGL167C): 1.4
The level of expressed mRNA in the presence of chemical substance/in the absence of chemical substance (yeast gene YGL184C): 1.0
The level of expressed mRNA in the presence of chemical substance/ (ratio to absence), gene YGL187C (yeast gene YGL187C, mitochondria-located protein genes, 2 h culture with chemical): 0.9
The level of expressed mRNA in the presence of chemical substance/ (yeast gene YGL193C): 1.1
The level of expressed mRNA in the presence of chemical substance/ (yeast gene YGL204C): 0.9
The level of expressed mRNA in the presence of chemical substance/ (in its absence), gene YGL205W (yeast gene YGL205W, ratio of DNA chip fluorescence intensity to that without chemical substance): 3.9
The level of expressed mRNA in the presence of chemical substance/The level of expressed mRNA in the absence of chemical substance (yeast gene YGL229C): 1.1
The level of expressed mRNA in the presence of chemical substance/ (yeast gene YGL250W): 1.2
The level of expressed mRNA in the presence of chemical substance/ (ratio to absence) (yeast gene YGL255W): 0.6
The level of expressed mRNA in the presence of chemical substance/ (yeast gene YGL259W): 0.9
The level of expressed mRNA in the presence of chemical substance/ (yeast gene YGR011W): 0.9
The level of expressed mRNA in the presence of chemical substance/in the absence of chemical substance (yeast gene YGR032W): 3.2
The level of expressed mRNA in the presence of chemical substance/ (yeast gene YGR042W): 1.3
The level of expressed mRNA in the presence of chemical substance/in the absence of chemical substance (yeast gene YGR043C): 1.6
The level of expressed mRNA in the presence of chemical substance/ (yeast gene YGR053C): 1.5
The level of expressed mRNA in the presence of chemical substance/ (ratio to absence) (yeast gene YGR055W): 0.7
The level of expressed mRNA in the presence of chemical substance/ in its absence, gene YGR062C (yeast gene YGR062C, energy system protein genes, 2 h culture with the chemical, ratio to control without chemical): 0.9
The level of expressed mRNA in the presence of chemical substance/ (ratio to absence), gene YGR062C (yeast gene YGR062C, mitochondria-located protein genes, 2 h culture with chemical): 0.9
The level of expressed mRNA in the presence of chemical substance/ (ratio to absence) (yeast gene YGR065C): 0.7
The level of expressed mRNA in the presence of chemical substance/ (yeast gene YGR066C): 1.0
The level of expressed mRNA in the presence of chemical substance/ (in its absence), gene YGR096W (yeast gene YGR096W, ratio of DNA chip fluorescence intensity to that without chemical substance): 0.8

From patent US20050112573A1, “Method of detecting toxic substance” (priority 2001, published 2005)
